Experimental data: publication PMC11451635, “A Broad Spectrum Lasso Peptide Antibiotic Targeting the Bacterial Ribosome” (Research Square, 2024)
pIC50: −log10 of the molar value. In brackets after ≈: the same amount, converted by molar mass. Entries after “also recorded” stand apart in the source; their conditions may differ. Like-named read-outs stand apart in the source and are kept apart here. Where a SMILES comes first, the peptide text is derived from it. Bridges are numbered along the chain shown (N, C = ends).

Legend:
[1] = system: rabbit reticulocyte lysate (luc mRNA); experiment: In vitro translation in rabbit reticulocyte lysate; format: biochemical
Method: The effect of LAR on eukaryotic translation was assessed using Rabbit Reticulocyte Lysate System (L4960, Promega) programmed with firefly luciferase mRNA. In vitro reactions were assembled according to the manufacturer’s protocol in a nal volume of 10 μL supplemented with 0.02–50 μM of LAR or no antibiotic and incubated for 90 min at 30°C. After that, 2.5 μL from each reaction was mixed with 50 μl of prewarmed luciferase assay reagent, and the luminescence was measured in Infinite M200 PRO plate reader (TECAN) for 10 min at 25°C. The assay was performed in triplicate.

E coli BW25113 ΔtolC = conditions: 18–22 h
[2] = system: strains with deletions of the individual identified genes; experiment: MIC in deletion strains of identified ETC/respiration genes; format: cell-based; conditions: deletions of genes related to ETC and respiration
Method: (§1) MICs were determined using broth microdilution method in cation-adjusted Mueller-Hinton Broth (MHBII, BD Difco) following standard procedures unless stated otherwise. Mycobacteria susceptibility was tested in Middlebrook 7H9 medium supplemented with 10% OADC Enrichment (oleic acid, bovine albumin, dextrose, and catalase) (BD Difco). The compounds (2 to 4 μl) were mixed with diluted cultures (5–7 × 10^5 cfu/mL) in MHB (196 to 198 μL) in 96-well round-bottom plates, and 2-fold serial dilutions were made. Plates were incubated at 37°C for 18–22 h, and OD600 readings were taken on Synergy Microplate Reader (Biotek). MIC was determined to be the lowest concentration of antibiotics with no visible growth. For Mycobacterial cultures, the plates were read after two to three days. Susceptibility was also assessed in MOPS minimal medium with 0.4% glucose (M2106 Teknova) and RPMI-1640 medium. Serum effects were tested in MHB with 10% or 50% fetal bovine serum (Invitrogen) or human serum (Heat Inactivated, from human male AB plasma; Sigma-Aldrich). For anaerobic conditions, E. coli was incubated in BD GasPak™ EZ pouch systems. To adjust the pH of the media, 1M NaOH or 1N HCl was used.

human erythrocytes = experiment: Haemolysis
E. coli BW25113 membrane = experiment: Propidium iodide uptake assay; format: cell-based, Escherichia coli; conditions: propidium iodide 4 μM, 30 min, RT, fluorescence
Method: E. coli BW25113 cells were prepared as described above and mixed with propidium iodide (final concentration 4 μM). Cell suspension (190 μL) was then placed into wells of a 96-well black-wall plate and supplemented with 10 μL of compounds at various concentrations. Fluorescence (lex/lem: 535/617 nm) was monitored for 30 min at RT in a Synergy Microplate Reader (Biotek). Colistin was used as a positive control.

E coli BW25113 ΔbamB = conditions: 18–22 h
[3] = system: E coli BW25113 ΔbamBΔtolC; conditions: 18–22 h
E. coli BW25113 = experiment: Selection of spontaneous resistant mutants; format: cell-based, Escherichia coli; conditions: ~10^9 cfu on MOPS minimal agar, 37°C, 24–48 h
E. coli SQ110DTC = experiment: Selection of spontaneous rRNA resistant mutants
[4] = system: E. coli cell-free transcription-translation system (gfp mRNA); experiment: In vitro translation, GFP mRNA
[5] = system: Lactobacillus plantarum GC4; experiment: MIC, gut bacteria; format: cell-based; conditions: column MHB; method: BHI + L-cysteine, hemin, vitamin K, anaerobic, 37 °C
Method: as §1
(§2) For MIC testing using human microbiota strains, the cultures were grown in BHI supplemented with L-cysteine (0.5g/L), Hemin (10mg/L), and Vitamin K (1mg/L) in anaerobic chambers (37 °C, 5% H2, 10% CO2, 85% N2). […]

[6] = system: Bacteroides fragilis GC73; experiment: MIC, gut bacteria; format: cell-based; conditions: column MHB; method: BHI + L-cysteine, hemin, vitamin K, anaerobic, 37 °C
Method: as §1, §2

[7] = system: E. coli strain CA244 lacZ C1456T; experiment: Miscoding assay (lacZ premature stop codon readthrough); conditions: MOPS agar, X-gal 80 μg/ml, IPTG 250 μM; 60.7 μg LAR spotted, ~18 h, 37°C
[8] = system: ribosomes (E. coli PURExpress); experiment: Toeprinting assay; format: biochemical, Escherichia coli; conditions: 1, 5 or 10 μM LAR, RST1 template
Method: Toe-printing analysis was carried out in the E. coli in vitro transcription-translation system assembled from the purified components (PURExpress, NEB) as described previously. Reactions either contained no antibiotic or were supplemented with 50 μM retapamulin or varying concentrations of LAR (1, 5, or 10 μM). The model RST1 template encoding a 21-aa long peptide containing all 20 proteinogenic amino acids[22] was generated by PCR using the primers RST1_F and FIRST1_R (Supplementary Table 1).

[9] = system: T. thermophilus 70S ribosome; experiment: X-ray structure of ribosome complex; format: binding, Thermus thermophilus
[10] = system: common anaerobe components of the human microbiome; experiment: Activity against human gut microbiome bacteria; format: cell-based; conditions: BHI, anaerobic, 37 °C
Method: For MIC testing using human microbiota strains, the cultures were grown in BHI supplemented with L-cysteine (0.5g/L), Hemin (10mg/L), and Vitamin K (1mg/L) in anaerobic chambers (37 °C, 5% H2, 10% CO2, 85% N2). Candida albicans was cultivated in yeast nitrogen base (YNB) medium without amino acids (BD Difco).

Compound: CC(C)[C@H](NC(=O)CNC(=O)[C@H](CCCNC(=N)N)NC(=O)CNC(=O)[C@H](Cc1ccccc1)NC(=O)[C@H](CCCCN)NC(=O)CNC(=O)[C@@H]1CC(=O)N[C@@H](CO)C(=O)N[C@@H](CCCCN)C(=O)N[C@@H](CCCCN)C(=O)N[C@@H](CO)C(=O)N[C@@H](CCCCN)C(=O)N2CCC[C@H]2C(=O)NCC(=O)N1)C(=O)N[C@@H](CCCCN)C(=O)N[C@@H](CCCNC(=N)N)C(=O)NCC(=O)O [LAR, lariocidin] (SKKSKPGDGKFGRGVKRG-OH; lactam N-8)
- Effect on eukaryotic translation [1]: only a marginal effect on eukaryotic translation
- pIC50 ([1]; luc mRNA, 0.02–50 μM LAR, 90 min, 30°C, luminescence, mean of three experiments, read-out: IC50, protein biosynthesis): 4.85
- IC50 in mammalian cell-free translation vs bacterial ([1]; ratio to E. coli system IC50): ~ 58 fold
- MIC (E coli BW25113 ΔtolC; MHB, 37°C): 2 to 4 µg/mL
- MIC (E coli BW25113 ΔtolC; RPMI-1640, 37°C): 0.5 µg/mL (≈ 0.267 µM)
- Change in MIC in deletion strains [2]: no significant changes in MIC
- Hemolytic activity (human erythrocytes): did not display hemolytic activity
- Haemolysis (human erythrocytes; 500 μg/ml, human erythrocytes in PBS pH 7.4, 1 h, 37°C, 540 nm, Triton X-100 = 100%): <1%
- Membrane permeabilization (E. coli BW25113 membrane): did not permeabilize
- MIC (E coli BW25113 ΔbamB; MHB, 37°C): 32 µg/mL (≈ 17.1 µM)
- MIC (E coli BW25113 ΔbamB; RPMI-1640, 37°C): 1 µg/mL (≈ 0.534 µM)
- MIC ([3]; MHB, 37°C): 2 to 4 µg/mL
- MIC ([3]; RPMI-1640, 37°C): ≤0.25 µg/mL
- Frequency of resistant mutants (E. coli BW25113): ~ 10^−8
- Effect of selected rRNA substitutions on MIC (E. coli SQ110DTC; 16S rRNA resistance mutations, Extended Data Fig. 6a): modest effects
- Frequency of resistant clones (E. coli SQ110DTC; MHB/agar, 64 μg/mL LAR (~4xMIC), 48 h, 37°C): ~ 2×10^−8
- IC50 class in words, bacterial translation ([4]; E. coli in vitro transcription-translation system, DNA or RNA): submicromolar
- pIC50 ([4]; read-out: IC50, protein synthesis, gfp mRNA, E. coli cell-free system, real-time sfGFP fluorescence, 1 h, mean of three experiments): 6.62
- MIC [5]: >256 µg/mL
- MIC [6]: >256 µg/mL
- Miscoding / premature stop codon readthrough [7]: induces miscoding; also recorded: induces premature stop codon readthrough
- Ribosome stalling (toeprint) [8]: predominantly arrested at the start codon of a model mRNA but also stalled at internal codons of the ORF
- Ribosome binding (X-ray structure) ([9]; 70S ribosome with mRNA and tRNAs, 250 μM antibiotic): binds to the small ribosomal subunit at a distinct site adjacent to the decoding center
- Ribosome binding without mRNA and tRNAs ([9]; Tth ribosome lacking mRNA and tRNAs (protein Y complex), 2.6 Å): the presence of A-site tRNA is not essential for LAR binding to the ribosome
- MIC (M. smegmatis MC^2 155): 1 to 2 µg/mL
- MIC (text) (M. smegmatis MC^2 155): 1 to 2 µg/mL
- Activity vs gut microbiome anaerobes [10]: no activity
